Values belong to the compound of their own block, whether it stands above or below them.
Legend:
MaDA1 = biological target: T1, MaDA1 (Morus alba, UniProt A0AAN0NNN7); assay: UPLC product assay; format: biochemical; settings: oxidative cyclisation to moracin D; 20 mM Tris-HCl pH 8.0, 50 °C
T1 construct: N-terminal 6xHis-SUMO tag, Sf9 baculovirus; tag removed by TEV protease for crystallisation; dimer in crystal
T1 sequence (A0AAN0NNN7 24-539 limits assumed): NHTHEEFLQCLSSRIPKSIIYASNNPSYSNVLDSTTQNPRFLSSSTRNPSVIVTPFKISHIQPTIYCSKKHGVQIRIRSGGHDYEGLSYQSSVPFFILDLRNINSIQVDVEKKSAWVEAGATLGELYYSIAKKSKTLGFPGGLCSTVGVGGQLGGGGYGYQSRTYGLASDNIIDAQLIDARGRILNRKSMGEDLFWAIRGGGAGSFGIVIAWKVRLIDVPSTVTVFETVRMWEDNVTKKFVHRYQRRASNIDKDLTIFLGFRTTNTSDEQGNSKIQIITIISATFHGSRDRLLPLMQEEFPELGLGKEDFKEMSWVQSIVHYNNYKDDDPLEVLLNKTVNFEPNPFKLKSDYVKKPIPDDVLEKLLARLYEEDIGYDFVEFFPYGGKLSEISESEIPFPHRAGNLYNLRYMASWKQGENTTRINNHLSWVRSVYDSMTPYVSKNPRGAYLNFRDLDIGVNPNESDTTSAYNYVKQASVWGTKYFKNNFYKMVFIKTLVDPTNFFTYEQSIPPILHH

[1] = biological target: Morus alba Diels-Alderase MaDA1 (Morus alba); assay: crystal structure; untagged MaDA1 at about 10 mg/mL, sitting drop vapor diffusion at 18 °C, 0.1 M Bis-Tris pH 5.5, 25% PEG3350
ancDADS = biological target: T2, ancDADS; assay: Lineweaver-Burk, UPLC product quantification; format: biochemical; settings: competitive against moracin C (20–150 μM); 20 mM Tris-HCl pH 8.0; compound is also an alternative substrate
T2 construct: N-terminal 6xHis-SUMO tag, Sf9 baculovirus

Compound: CC(C)=CCc1c(O)cc(-c2cc3ccc(O)cc3o2)cc1O [compound 1, moracin C]
UPLC product assay (MaDA1): two DAs (MaDA1 and MaDA4) and two DSs (MaDS1 and MaDS6) exhibit functional promiscuity

stoichiometry N [1]: 2
Compound: Morus alba Diels-Alderase MaDA1 (enzyme)

Ki (ancDADS): 7.34 µM
Compound: CC(C)=CCc1c(O)ccc(C(=O)/C=C/c2ccc(O)cc2O)c1O [compound 4, morachalcone A]

From paper PMC10954736, “The evolutionary origin of naturally occurring intermolecular Diels-Alderases from Morus alba” (Nature Communications, 2024)
